Measured values taken from ChEMBL document CHEMBL4507289, “Data for DCP probe GSM1” (2021).

Experiments:
[1] = test system: Tyrosine-protein kinase ABL1 (Homo sapiens), P00519 [Q252H]; conditions: Compound concentration 1000.0 nM
[2] = molecular target: Serine/threonine-protein kinase PLK1 (Homo sapiens) (UniProt P53350); conditions: Compound concentration 1000.0 nM
[3] = molecular target: Phosphatidylinositol 4-phosphate 5-kinase type-1 alpha (Homo sapiens) (UniProt Q99755); conditions: Compound concentration 1000.0 nM
[4] = molecular target: Mitogen-activated protein kinase 8 (Homo sapiens) (UniProt P45983); conditions: Compound concentration 1000.0 nM
Chain of Mitogen-activated protein kinase 8 (Homo sapiens) (P45983 whole entry): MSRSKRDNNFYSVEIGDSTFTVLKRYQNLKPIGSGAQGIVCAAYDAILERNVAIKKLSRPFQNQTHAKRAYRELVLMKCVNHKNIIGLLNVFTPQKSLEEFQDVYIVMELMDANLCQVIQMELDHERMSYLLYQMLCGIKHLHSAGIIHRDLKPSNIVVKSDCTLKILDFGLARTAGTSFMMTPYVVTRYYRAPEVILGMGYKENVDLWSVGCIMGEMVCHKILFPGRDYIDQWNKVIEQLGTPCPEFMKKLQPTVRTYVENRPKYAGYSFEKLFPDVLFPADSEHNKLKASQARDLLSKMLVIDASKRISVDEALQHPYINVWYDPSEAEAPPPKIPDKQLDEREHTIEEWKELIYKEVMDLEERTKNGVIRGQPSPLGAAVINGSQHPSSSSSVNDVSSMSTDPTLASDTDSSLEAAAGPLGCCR

[5] = molecular target: Activin receptor type-1B (Homo sapiens) (UniProt P36896); conditions: Compound concentration 1000.0 nM
Chain of Activin receptor type-1B (Homo sapiens) (P36896 whole entry): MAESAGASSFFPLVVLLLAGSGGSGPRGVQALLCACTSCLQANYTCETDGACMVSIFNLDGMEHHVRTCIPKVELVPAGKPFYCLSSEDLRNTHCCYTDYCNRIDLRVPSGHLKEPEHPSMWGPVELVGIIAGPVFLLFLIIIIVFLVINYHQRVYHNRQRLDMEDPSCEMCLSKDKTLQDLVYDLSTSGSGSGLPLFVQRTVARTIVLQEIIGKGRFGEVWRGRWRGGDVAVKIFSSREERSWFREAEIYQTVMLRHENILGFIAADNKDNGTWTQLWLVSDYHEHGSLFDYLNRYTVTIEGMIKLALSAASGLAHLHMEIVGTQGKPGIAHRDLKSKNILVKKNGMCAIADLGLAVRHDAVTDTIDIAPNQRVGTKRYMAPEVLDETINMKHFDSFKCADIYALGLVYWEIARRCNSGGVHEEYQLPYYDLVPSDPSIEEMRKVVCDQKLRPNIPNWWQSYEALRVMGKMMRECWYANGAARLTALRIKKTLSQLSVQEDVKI

[6] = molecular target: Inhibitor of nuclear factor kappa-B kinase subunit epsilon (Homo sapiens) (UniProt Q14164); conditions: Compound concentration 1000.0 nM
[7] = molecular target: cGMP-dependent protein kinase 1 (Homo sapiens) (UniProt Q13976); conditions: Compound concentration 1000.0 nM
[8] = molecular target: Tyrosine-protein kinase receptor TYRO3 (Homo sapiens) (UniProt Q06418); conditions: Compound concentration 1000.0 nM
[9] = test system: Mast/stem cell growth factor receptor Kit (Homo sapiens), P10721 [A829P]; conditions: Compound concentration 1000.0 nM
[10] = molecular target: MAP kinase-interacting serine/threonine-protein kinase 1 (Homo sapiens) (UniProt Q9BUB5); conditions: Compound concentration 1000.0 nM
[11] = molecular target: Casein kinase I isoform gamma-2 (Homo sapiens) (UniProt P78368); conditions: Compound concentration 1000.0 nM
[12] = molecular target: Serine/threonine-protein kinase Nek2 (Homo sapiens) (UniProt P51955); conditions: Compound concentration 1000.0 nM
[13] = test system: ALK tyrosine kinase receptor (Homo sapiens), Q9UM73 [L1196M]; conditions: Compound concentration 1000.0 nM
[14] = molecular target: Tyrosine-protein kinase BTK (Homo sapiens) (UniProt Q06187); conditions: Compound concentration 1000.0 nM
[15] = molecular target: Cyclin-dependent kinase-like 2 (Homo sapiens) (UniProt Q92772); conditions: Compound concentration 1000.0 nM
[16] = molecular target: Rhodopsin kinase GRK7 (Homo sapiens) (UniProt Q8WTQ7); conditions: Compound concentration 1000.0 nM
[17] = molecular target: Tyrosine-protein kinase receptor Tie-1 (Homo sapiens) (UniProt P35590); conditions: Compound concentration 1000.0 nM
[18] = molecular target: Insulin-like growth factor 1 receptor (Homo sapiens) (UniProt P08069); conditions: Compound concentration 1000.0 nM
[19] = molecular target: Ribosomal protein S6 kinase alpha-1 (Homo sapiens) (UniProt Q15418); conditions: Compound concentration 1000.0 nM
[20] = molecular target: Ephrin type-A receptor 7 (Homo sapiens) (UniProt Q15375); conditions: Compound concentration 1000.0 nM
[21] = test system: Receptor-type tyrosine-protein kinase FLT3 (Homo sapiens), P36888 [K663Q]; conditions: Compound concentration 1000.0 nM
[22] = molecular target: Receptor-type tyrosine-protein kinase FLT3 (Homo sapiens) (UniProt P36888); conditions: Compound concentration 1000.0 nM
[23] = molecular target: Serine/threonine-protein kinase 25 (Homo sapiens) (UniProt O00506); conditions: Compound concentration 1000.0 nM
[24] = test system: Tyrosine-protein kinase ABL1 (Homo sapiens), P00519 [H396P]; conditions: Compound concentration 1000.0 nM
[25] = molecular target: Ribosomal protein S6 kinase alpha-6 (Homo sapiens) (UniProt Q9UK32); conditions: Compound concentration 1000.0 nM
[26] = molecular target: AP2-associated protein kinase 1 (Homo sapiens) (UniProt Q2M2I8); conditions: Compound concentration 1000.0 nM
[27] = molecular target: Mitogen-activated protein kinase 4 (Homo sapiens) (UniProt P31152); conditions: Compound concentration 1000.0 nM
[28] = molecular target: Phosphatidylinositol 4-phosphate 5-kinase type-1 gamma (Homo sapiens) (UniProt O60331); conditions: Compound concentration 1000.0 nM
[29] = molecular target: Dual specificity mitogen-activated protein kinase kinase 1 (Homo sapiens) (UniProt Q02750); conditions: Compound concentration 1000.0 nM
Chain of Dual specificity mitogen-activated protein kinase kinase 1 (Homo sapiens) (Q02750 whole entry): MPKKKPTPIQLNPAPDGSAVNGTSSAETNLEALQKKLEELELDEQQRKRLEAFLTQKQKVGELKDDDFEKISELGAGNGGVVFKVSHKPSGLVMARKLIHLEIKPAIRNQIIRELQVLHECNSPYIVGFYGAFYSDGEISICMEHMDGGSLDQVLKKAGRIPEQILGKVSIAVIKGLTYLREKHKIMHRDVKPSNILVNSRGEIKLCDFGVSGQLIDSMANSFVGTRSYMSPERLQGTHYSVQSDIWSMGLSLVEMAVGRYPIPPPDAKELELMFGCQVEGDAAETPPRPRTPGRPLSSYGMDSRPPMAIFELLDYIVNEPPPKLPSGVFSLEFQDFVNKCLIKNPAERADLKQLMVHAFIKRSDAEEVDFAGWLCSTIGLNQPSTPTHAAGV

[30] = molecular target: Calcium/calmodulin-dependent protein kinase type 1G (Homo sapiens) (UniProt Q96NX5); conditions: Compound concentration 1000.0 nM
[31] = molecular target: Serine/threonine-protein kinase 33 (Homo sapiens) (UniProt Q9BYT3); conditions: Compound concentration 1000.0 nM
[32] = molecular target: SRSF protein kinase 2 (Homo sapiens) (UniProt P78362); conditions: Compound concentration 1000.0 nM
Chain of SRSF protein kinase 2 (Homo sapiens) (P78362 whole entry, looked up): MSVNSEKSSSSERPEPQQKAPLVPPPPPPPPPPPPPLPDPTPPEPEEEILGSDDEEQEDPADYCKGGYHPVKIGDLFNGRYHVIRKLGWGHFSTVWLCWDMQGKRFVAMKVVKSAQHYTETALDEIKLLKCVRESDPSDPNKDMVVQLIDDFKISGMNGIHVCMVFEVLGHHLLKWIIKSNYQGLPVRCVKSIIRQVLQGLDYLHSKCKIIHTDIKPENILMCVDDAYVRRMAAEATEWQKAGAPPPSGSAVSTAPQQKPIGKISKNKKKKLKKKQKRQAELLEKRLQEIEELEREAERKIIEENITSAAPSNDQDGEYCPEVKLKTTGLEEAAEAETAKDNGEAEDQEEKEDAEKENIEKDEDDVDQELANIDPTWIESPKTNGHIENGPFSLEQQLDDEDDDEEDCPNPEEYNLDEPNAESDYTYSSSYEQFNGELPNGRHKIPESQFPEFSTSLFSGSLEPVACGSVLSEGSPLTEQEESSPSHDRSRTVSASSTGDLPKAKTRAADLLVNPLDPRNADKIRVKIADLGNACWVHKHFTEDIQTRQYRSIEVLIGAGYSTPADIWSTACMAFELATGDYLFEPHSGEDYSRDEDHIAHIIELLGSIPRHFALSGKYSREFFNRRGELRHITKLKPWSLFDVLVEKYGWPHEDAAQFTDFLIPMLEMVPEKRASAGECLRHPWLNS

[33] = molecular target: Serine/threonine-protein kinase PAK 6 (Homo sapiens) (UniProt Q9NQU5); conditions: Compound concentration 1000.0 nM
[34] = molecular target: Serine/threonine-protein kinase NIM1 (Homo sapiens) (UniProt Q8IY84); conditions: Compound concentration 1000.0 nM
[35] = molecular target: MAP kinase-activated protein kinase 5 (Homo sapiens) (UniProt Q8IW41); conditions: Compound concentration 1000.0 nM
[36] = molecular target: Dual specificity mitogen-activated protein kinase kinase 2 (Homo sapiens) (UniProt P36507); conditions: Compound concentration 1000.0 nM
[37] = molecular target: Misshapen-like kinase 1 (Homo sapiens) (UniProt Q8N4C8); conditions: Compound concentration 1000.0 nM
[38] = test system: Phosphatidylinositol 4,5-bisphosphate 3-kinase catalytic subunit alpha isoform (Homo sapiens), P42336 [I800L]; conditions: Compound concentration 1000.0 nM
[39] = molecular target: Sodium-dependent noradrenaline transporter (Homo sapiens, UniProt P23975); conditions: Compound concentration 10.0 uM
[40] = molecular target: Muscarinic acetylcholine receptor M3 (Homo sapiens) (UniProt P20309); conditions: Compound concentration 10.0 uM
[41] = molecular target: D(2) dopamine receptor (Homo sapiens) (UniProt P14416); conditions: Compound concentration 10.0 uM
[42] = molecular target: 1-phosphatidylinositol 3-phosphate 5-kinase (Homo sapiens) (UniProt Q9Y2I7); conditions: Compound concentration 1000.0 nM
Chain of 1-phosphatidylinositol 3-phosphate 5-kinase (Homo sapiens) (Q9Y2I7 whole entry): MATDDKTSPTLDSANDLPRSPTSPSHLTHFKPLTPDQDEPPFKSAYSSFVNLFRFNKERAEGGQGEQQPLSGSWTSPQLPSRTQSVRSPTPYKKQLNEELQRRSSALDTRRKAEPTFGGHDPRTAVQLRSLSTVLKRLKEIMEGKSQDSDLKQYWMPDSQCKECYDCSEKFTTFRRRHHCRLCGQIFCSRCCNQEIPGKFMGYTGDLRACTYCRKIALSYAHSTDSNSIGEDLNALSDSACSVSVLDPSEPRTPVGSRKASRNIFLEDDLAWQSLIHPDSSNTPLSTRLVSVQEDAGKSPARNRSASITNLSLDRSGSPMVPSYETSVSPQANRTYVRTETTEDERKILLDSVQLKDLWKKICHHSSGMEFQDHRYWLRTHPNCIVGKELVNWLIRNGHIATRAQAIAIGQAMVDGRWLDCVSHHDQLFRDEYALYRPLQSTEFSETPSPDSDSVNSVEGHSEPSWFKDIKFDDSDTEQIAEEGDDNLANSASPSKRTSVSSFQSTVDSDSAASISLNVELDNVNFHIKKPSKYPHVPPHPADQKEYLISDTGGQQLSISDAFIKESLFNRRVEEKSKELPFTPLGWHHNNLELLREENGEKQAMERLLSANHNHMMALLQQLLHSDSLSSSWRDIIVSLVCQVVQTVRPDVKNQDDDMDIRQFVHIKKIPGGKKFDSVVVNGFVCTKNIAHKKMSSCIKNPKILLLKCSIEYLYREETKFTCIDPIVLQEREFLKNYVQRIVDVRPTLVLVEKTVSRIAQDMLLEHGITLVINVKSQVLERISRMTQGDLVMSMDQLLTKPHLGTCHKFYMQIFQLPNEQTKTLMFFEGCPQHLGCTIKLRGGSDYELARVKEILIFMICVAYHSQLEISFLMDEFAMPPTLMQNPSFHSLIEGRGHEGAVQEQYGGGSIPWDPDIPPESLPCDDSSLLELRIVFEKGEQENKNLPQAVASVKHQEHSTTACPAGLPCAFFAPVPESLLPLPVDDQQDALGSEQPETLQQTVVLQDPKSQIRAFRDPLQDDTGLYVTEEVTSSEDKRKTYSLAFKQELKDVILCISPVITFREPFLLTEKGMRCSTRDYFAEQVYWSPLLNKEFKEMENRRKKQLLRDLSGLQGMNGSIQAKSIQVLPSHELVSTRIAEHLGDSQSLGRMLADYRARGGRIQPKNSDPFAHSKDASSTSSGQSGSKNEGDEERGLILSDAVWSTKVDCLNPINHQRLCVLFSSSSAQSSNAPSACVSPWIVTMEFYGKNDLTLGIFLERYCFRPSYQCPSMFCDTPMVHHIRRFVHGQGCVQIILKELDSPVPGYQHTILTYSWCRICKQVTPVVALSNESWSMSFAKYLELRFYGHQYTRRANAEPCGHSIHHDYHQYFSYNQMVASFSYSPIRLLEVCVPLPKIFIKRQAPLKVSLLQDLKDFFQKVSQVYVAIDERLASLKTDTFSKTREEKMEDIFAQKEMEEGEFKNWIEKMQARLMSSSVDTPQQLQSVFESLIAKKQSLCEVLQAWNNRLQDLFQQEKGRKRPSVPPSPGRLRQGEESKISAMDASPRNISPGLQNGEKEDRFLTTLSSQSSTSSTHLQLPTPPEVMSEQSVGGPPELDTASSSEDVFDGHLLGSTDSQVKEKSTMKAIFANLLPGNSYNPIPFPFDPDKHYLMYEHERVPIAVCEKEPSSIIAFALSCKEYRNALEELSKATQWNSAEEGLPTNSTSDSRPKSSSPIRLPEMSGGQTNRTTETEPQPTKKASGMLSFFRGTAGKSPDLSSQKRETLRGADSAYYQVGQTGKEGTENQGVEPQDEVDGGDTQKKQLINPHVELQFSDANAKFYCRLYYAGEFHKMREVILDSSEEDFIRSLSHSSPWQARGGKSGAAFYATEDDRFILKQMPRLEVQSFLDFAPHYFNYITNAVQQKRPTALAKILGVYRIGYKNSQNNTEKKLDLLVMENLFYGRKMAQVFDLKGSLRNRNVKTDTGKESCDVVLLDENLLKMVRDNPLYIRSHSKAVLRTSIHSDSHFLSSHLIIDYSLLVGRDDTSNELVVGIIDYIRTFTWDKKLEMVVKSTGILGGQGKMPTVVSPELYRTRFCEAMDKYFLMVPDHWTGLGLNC

[43] = molecular target: Serine/threonine-protein kinase 32B (Homo sapiens) (UniProt Q9NY57); conditions: Compound concentration 1000.0 nM
[44] = test system: Tyrosine-protein kinase ABL1 (Homo sapiens), P00519 [T315I]; conditions: Compound concentration 1000.0 nM
[45] = molecular target: Mast/stem cell growth factor receptor Kit (Homo sapiens) (UniProt P10721); conditions: Compound concentration 1000.0 nM
Chain of Mast/stem cell growth factor receptor Kit (Homo sapiens) (P10721 whole entry): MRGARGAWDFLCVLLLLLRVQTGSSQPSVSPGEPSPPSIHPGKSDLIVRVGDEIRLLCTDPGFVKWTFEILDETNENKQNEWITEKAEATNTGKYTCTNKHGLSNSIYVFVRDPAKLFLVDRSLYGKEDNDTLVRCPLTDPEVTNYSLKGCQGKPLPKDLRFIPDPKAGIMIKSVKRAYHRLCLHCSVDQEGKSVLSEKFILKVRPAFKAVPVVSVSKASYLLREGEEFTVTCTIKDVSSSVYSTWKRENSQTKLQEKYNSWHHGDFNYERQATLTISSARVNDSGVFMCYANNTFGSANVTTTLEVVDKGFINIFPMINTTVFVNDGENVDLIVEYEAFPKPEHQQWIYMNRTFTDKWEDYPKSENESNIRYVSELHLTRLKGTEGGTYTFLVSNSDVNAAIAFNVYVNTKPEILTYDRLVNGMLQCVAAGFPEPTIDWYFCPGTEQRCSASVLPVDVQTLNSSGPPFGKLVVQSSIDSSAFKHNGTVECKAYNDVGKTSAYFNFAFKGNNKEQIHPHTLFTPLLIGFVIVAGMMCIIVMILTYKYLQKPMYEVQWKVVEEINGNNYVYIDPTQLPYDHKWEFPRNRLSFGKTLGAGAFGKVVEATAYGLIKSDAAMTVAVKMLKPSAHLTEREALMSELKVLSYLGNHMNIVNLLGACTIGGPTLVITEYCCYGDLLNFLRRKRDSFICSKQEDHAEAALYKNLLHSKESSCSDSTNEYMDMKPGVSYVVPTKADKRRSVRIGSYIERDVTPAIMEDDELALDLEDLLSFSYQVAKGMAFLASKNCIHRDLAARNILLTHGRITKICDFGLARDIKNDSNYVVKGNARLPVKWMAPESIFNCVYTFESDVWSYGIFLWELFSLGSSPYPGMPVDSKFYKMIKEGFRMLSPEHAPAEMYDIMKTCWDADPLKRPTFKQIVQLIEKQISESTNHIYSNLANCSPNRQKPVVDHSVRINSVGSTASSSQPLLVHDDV

COc1cc(-c2cn([C@H]3CCc4c(F)cccc4N(CC(F)(F)F)C3=O)nn2)ccc1-n1cnc(C)c1
residual activity [1]: 95% | residual activity [2]: 100% | residual activity [3]: 100% | residual activity [4]: 52% | residual activity [5]: 100% | residual activity [6]: 100% | residual activity [7]: 100% | residual activity [8]: 100% | residual activity [9]: 92% | residual activity [10]: 87% | residual activity [11]: 100% | residual activity [12]: 100% | residual activity [13]: 100% | residual activity [14]: 100% | residual activity [15]: 67% | residual activity [16]: 100% | residual activity [17]: 100% | residual activity [18]: 100% | residual activity [19]: 81% | residual activity [20]: 100% | residual activity [21]: 92% | residual activity [22]: 100% | residual activity [23]: 100% | residual activity [24]: 52% | residual activity [25]: 82% | residual activity [26]: 100% | residual activity [27]: 89% | residual activity [28]: 90% | residual activity [29]: 100% | residual activity [30]: 100% | residual activity [31]: 100% | residual activity [32]: 100% | residual activity [33]: 100% | residual activity [34]: 78% | residual activity [35]: 100% | residual activity [36]: 100% | residual activity [37]: 84% | residual activity [38]: 66% | inhibition [39]: 87.1% | inhibition [40]: -4.42% | inhibition [41]: 31.2% | residual activity [42]: 100% | residual activity [43]: 100% | residual activity [44]: 85% | residual activity [45]: 100%

COc1cc(-c2cn([C@H]3CCc4ccccc4N(CC(F)(F)F)C3=O)nn2)ccc1-n1ccc(C)n1
residual activity [1]: 90% | residual activity [2]: 84% | residual activity [3]: 96% | residual activity [4]: 55% | residual activity [5]: 83% | residual activity [6]: 68% | residual activity [7]: 100% | residual activity [8]: 100% | residual activity [9]: 68% | residual activity [10]: 78% | residual activity [11]: 100% | residual activity [12]: 100% | residual activity [13]: 91% | residual activity [14]: 82% | residual activity [15]: 91% | residual activity [16]: 87% | residual activity [17]: 100% | residual activity [18]: 100% | residual activity [19]: 82% | residual activity [20]: 100% | residual activity [21]: 100% | residual activity [22]: 89% | residual activity [23]: 100% | residual activity [24]: 47% | residual activity [25]: 81% | residual activity [26]: 100% | residual activity [27]: 99% | residual activity [28]: 100% | residual activity [29]: 100% | residual activity [30]: 100% | residual activity [31]: 100% | residual activity [32]: 81% | residual activity [33]: 100% | residual activity [34]: 80% | residual activity [35]: 91% | residual activity [36]: 98% | residual activity [37]: 100% | residual activity [38]: 76% | inhibition [39]: 49.4% | inhibition [40]: -6.94% | inhibition [41]: 7.85% | residual activity [42]: 100% | residual activity [43]: 85% | residual activity [44]: 77% | residual activity [45]: 100%
